# Read-outs that look alike come from different tables or passages of the source.
# Tests used:
# Test in all cases: Antibacterial activity (MIC), Japan Society of Chemotherapy standard method
# Assay type in all cases: cell-based
# E. coli NIHJ = tested on: E. coli NIHJ
# Procedure: (§1) Antibacterial activities of the compounds of the invention were measured in accordance with the standard method specified by the Japan Society of Chemotherapy, with the results shown in the following table as MIC values (μg/ml). In this connection, MIC values of levofloxacin (LVFX), ciprofloxacin (CPFX) and 5-amino-7-[3-(R)-[1-(S)-aminoethyl]pyrrolidin-1-yl]-6-fluoro-1-[2-(S)-fluoro-1-(R)-cyclopropyl]-8-methyl-1,4-dihydro-4-oxoquinoline-3-carboxylic acid (control drug 1) described in WO 9623782 are also shown for the sake of comparison with the MIC values of the compounds of the invention.
# E. faecalis ATCC 19433 = tested on: E. faecalis ATCC 19433
# Procedure: as §1
# K. pneumoniae TYPE 1 = tested on: K. pneumoniae TYPE 1
# Procedure: as §1
# Pr. Vulgaris O8601 = tested on: Pr. Vulgaris O8601
# Procedure: as §1
# Ps. aeruginosa 32104 = tested on: Ps. aeruginosa 32104
# Procedure: as §1
# Ps. aeruginosa 32121 = tested on: Ps. aeruginosa 32121
# Procedure: as §1
# S. aureus 870307 = tested on: S. aureus 870307
# Procedure: as §1
# S. aureus FDA 209P = tested on: S. aureus FDA 209P
# Procedure: as §1
# S. epidermidis 56500 = tested on: S. epidermidis 56500
# Procedure: as §1
# S. flexneri 2A 5503 = tested on: S. flexneri 2A 5503
# Procedure: as §1
# Ser. marcescens 10100 = tested on: Ser. marcescens 10100
# Procedure: as §1
# Str. pneumoniae J24 = tested on: Str. pneumoniae J24
# Procedure: as §1
# Str. pyrogenes G-36 = tested on: Str. pyrogenes G-36
# Procedure: as §1
# X. maltophilia IID 1275 = tested on: X. maltophilia IID 1275
# Procedure: as §1
# [1] = Escherichia coli, read-out: MIC
# [2] = Shigella flexneri, 2A5503, S. flexneri 2A 5503, read-out: MIC
# [3] = Enterococcus faecalis, ATCC19433, E. faecalis ATCC 19433, read-out: MIC
# [4] = Klebsiella pneumoniae, TYPE1, K. pneumoniae TYPE 1, read-out: MIC
# [5] = Proteus vulgaris, read-out: MIC
# [6] = Pseudomonas aeruginosa, 32104, Ps. aeruginosa 32104, read-out: MIC
# [7] = Pseudomonas aeruginosa, 32121, Ps. aeruginosa 32121, read-out: MIC
# [8] = Staphylococcus aureus, 870307, S. aureus 870307, read-out: MIC
# [9] = Staphylococcus aureus, FDA209P, read-out: MIC
# [10] = Staphylococcus epidermidis, read-out: MIC
# [11] = Serratia marcescens, 10100, Ser. marcescens 10100, read-out: MIC
# [12] = Streptococcus pneumoniae, J24, Str. pneumoniae J24, read-out: MIC
# [13] = Stenotrophomonas maltophilia, IID1275, X. maltophilia IID 1275, read-out: MIC
compound,measurement,setting,value
"Nc1c(F)c(N2CC[C@@H](C(N)c3ccco3)C2)c(F)c2c1c(=O)c(C(=O)O)cn2[C@@H]1C[C@@H]1F (stereo partly drawn) [Example 12, 5-Amino-7-{3-(R)-[1-amino-1-(2-furyl)methyl]-1-pyrrolidinyl}-6,8-difluoro-1-[2-(S)-fluoro-1-(R)-cyclopropyl]-1,4-dihydro-4-oxoquinoline-3-carboxylic acid]",MIC,E. coli NIHJ; [1],≤ 0.003 µg/mL
same,MIC,E. faecalis ATCC 19433; E. faecalis ATCC 19433,0.006 µg/mL
same,MIC,K. pneumoniae TYPE 1; K. pneumoniae TYPE 1,0.025 µg/mL
same,MIC,Pr. Vulgaris O8601,0.013 µg/mL
same,MIC,Ps. aeruginosa 32104; Ps. aeruginosa 32104,0.1 µg/mL
same,MIC,Ps. aeruginosa 32121; Ps. aeruginosa 32121,0.05 µg/mL
same,MIC,S. aureus 870307; S. aureus 870307,≦0.003 μg/ml
same,MIC,S. aureus FDA 209P,≦0.003 μg/ml
same,MIC,S. epidermidis 56500,≦0.003 μg/ml
same,MIC,S. flexneri 2A 5503; [2],≤ 0.003 µg/mL
same,MIC,Ser. marcescens 10100; Ser. marcescens 10100,0.025 µg/mL
same,MIC,Str. pneumoniae J24; Str. pneumoniae J24,≦0.003 μg/ml
same,MIC,Str. pyrogenes G-36,≦0.003 μg/ml
same,MIC,X. maltophilia IID 1275; X. maltophilia IID 1275,0.05 µg/mL
Nc1c(F)c(N2CC[C@@H](C(N)c3ccccn3)C2)c(F)c2c1c(=O)c(C(=O)O)cn2[C@@H]1C[C@@H]1F (stereo partly drawn) [Example 16],MIC,E. coli NIHJ,≦0.003 μg/ml
same,MIC,E. faecalis ATCC 19433; E. faecalis ATCC 19433,0.013 µg/mL
same,MIC,K. pneumoniae TYPE 1; K. pneumoniae TYPE 1,0.025 µg/mL
same,MIC,Pr. Vulgaris O8601,0.025 µg/mL
same,MIC,Ps. aeruginosa 32104; Ps. aeruginosa 32104,0.2 µg/mL
same,MIC,Ps. aeruginosa 32121; Ps. aeruginosa 32121,0.05 µg/mL
same,MIC,S. aureus 870307; S. aureus 870307,0.006 µg/mL
same,MIC,S. aureus FDA 209P,≦0.003 μg/ml
same,MIC,S. epidermidis 56500,≦0.003 μg/ml
same,MIC,S. flexneri 2A 5503; S. flexneri 2A 5503,≦0.003 μg/ml
same,MIC,Ser. marcescens 10100; Ser. marcescens 10100,0.1 µg/mL
same,MIC,Str. pneumoniae J24; Str. pneumoniae J24,≦0.003 μg/ml
same,MIC,Str. pyrogenes G-36,≦0.003 μg/ml
same,MIC,X. maltophilia IID 1275; X. maltophilia IID 1275,0.1 µg/mL
"Cc1c(N2CC[C@@H](C(N)c3ccccn3)C2)c(F)c(N)c2c(=O)c(C(=O)O)cn([C@@H]3C[C@@H]3F)c12 (stereo partly drawn) [Example 17, 5-Amino-7-{3-(R)-[1-amino-1-(2-pyridyl)methyl]-1-pyrrolidiny}-6-fluoro-1-[(1R, 2S)-2-fluorocyclopropyl)-1,4-dihydro-8-methyl-4-oxoquinoline-3-carboxylic acid]",MIC,E. coli NIHJ,≦0.003 μg/ml
same,MIC,E. faecalis ATCC 19433; E. faecalis ATCC 19433,0.025 µg/mL
same,MIC,K. pneumoniae TYPE 1; K. pneumoniae TYPE 1,0.05 µg/mL
same,MIC,Pr. Vulgaris O8601,0.05 µg/mL
same,MIC,Ps. aeruginosa 32104; Ps. aeruginosa 32104,0.2 µg/mL
same,MIC,Ps. aeruginosa 32121; Ps. aeruginosa 32121,0.1 µg/mL
same,MIC,S. aureus 870307; S. aureus 870307,0.013 µg/mL
same,MIC,S. aureus FDA 209P,≦0.003 μg/ml
same,MIC,S. epidermidis 56500,≦0.003 μg/ml
same,MIC,S. flexneri 2A 5503; S. flexneri 2A 5503,0.006 µg/mL
same,MIC,Ser. marcescens 10100; Ser. marcescens 10100,0.1 µg/mL
same,MIC,Str. pneumoniae J24; Str. pneumoniae J24,≦0.003 μg/ml
same,MIC,Str. pyrogenes G-36,≦0.003 μg/ml
same,MIC,X. maltophilia IID 1275; X. maltophilia IID 1275,0.05 µg/mL
"Nc1c(F)c(N2CC[C@@H](C(N)c3cccnc3)C2)c(F)c2c1c(=O)c(C(=O)O)cn2[C@@H]1C[C@@H]1F (stereo partly drawn) [Example 19, 5-Amino-7-(3-(R)-[1-amino-1-(3-pyridyl)methyl]-1-pyrrolidinyl]-6,8-difluoro-1-[(1R, 2S)-2-fluorocyclopropyl]-1,4-dihydro-4-oxoquinoline-3-carboxylic acid]",MIC,E. coli NIHJ; [1],≤ 0.003 µg/mL
same,MIC,E. faecalis ATCC 19433; [3],0.025 µg/mL
same,MIC,K. pneumoniae TYPE 1; [4],0.025 µg/mL
same,MIC,Pr. Vulgaris O8601; [5],0.025 µg/mL
same,MIC,Ps. aeruginosa 32104; [6],0.2 µg/mL
same,MIC,Ps. aeruginosa 32121; [7],0.05 µg/mL
same,MIC,S. aureus 870307; [8],0.025 µg/mL
same,MIC,S. aureus FDA 209P; [9],≤ 0.003 µg/mL
same,MIC,S. epidermidis 56500; [10],≤ 0.003 µg/mL
same,MIC,S. flexneri 2A 5503; [2],≤ 0.003 µg/mL
same,MIC,Ser. marcescens 10100; [11],0.1 µg/mL
same,MIC,Str. pneumoniae J24; [12],≤ 0.003 µg/mL
same,MIC,Str. pyrogenes G-36; read-out: MIC,≤ 0.003 µg/mL
same,MIC,X. maltophilia IID 1275; [13],0.1 µg/mL
"Cc1c(N2CC[C@@H](C(N)c3cccnc3)C2)c(F)c(N)c2c(=O)c(C(=O)O)cn([C@@H]3C[C@@H]3F)c12 (stereo partly drawn) [Example 20, 5-Amino-7-(3-(R)-[1-amino-1-(3-pyridyl)methyl]-1-pyrrolidinyl)-6-fluoro-1-[(1R,2S)-2-fluorocyclopropyl]-1,4-dihydro-8-methyl-4-oxoquinoline-3-carboxylic acid]",MIC,E. coli NIHJ; [1],0.006 µg/mL
same,MIC,E. faecalis ATCC 19433; [3],0.025 µg/mL
same,MIC,K. pneumoniae TYPE 1; [4],0.05 µg/mL
same,MIC,Pr. Vulgaris O8601; [5],0.025 µg/mL
same,MIC,Ps. aeruginosa 32104; [6],0.2 µg/mL
same,MIC,Ps. aeruginosa 32121; [7],0.05 µg/mL
same,MIC,S. aureus 870307; [8],0.05 µg/mL
same,MIC,S. aureus FDA 209P; [9],≤ 0.003 µg/mL
same,MIC,S. epidermidis 56500; [10],≤ 0.003 µg/mL
same,MIC,S. flexneri 2A 5503; [2],0.006 µg/mL
same,MIC,Ser. marcescens 10100; [11],0.1 µg/mL
same,MIC,Str. pneumoniae J24; [12],≤ 0.003 µg/mL
same,MIC,Str. pyrogenes G-36; read-out: MIC,≤ 0.003 µg/mL
same,MIC,X. maltophilia IID 1275; [13],0.2 µg/mL
"C[C@H]1COc2c(N3CCN(C)CC3)c(F)cc3c(=O)c(C(=O)O)cn1c23 [LVFX, levofloxacin, reference compound]",MIC,E. coli NIHJ; [1],0.013 µg/mL
same,MIC,E. faecalis ATCC 19433; [3],0.78 µg/mL
same,MIC,K. pneumoniae TYPE 1; [4],0.1 µg/mL
same,MIC,Pr. Vulgaris O8601; [5],0.13 µg/mL
same,MIC,Ps. aeruginosa 32104; [6],0.2 µg/mL
same,MIC,Ps. aeruginosa 32121; [7],0.1 µg/mL
same,MIC,S. aureus 870307; [8],> 6.25 µg/mL
same,MIC,S. aureus FDA 209P; [9],0.2 µg/mL
same,MIC,S. epidermidis 56500; [10],0.39 µg/mL
same,MIC,S. flexneri 2A 5503; [2],0.025 µg/mL
same,MIC,Ser. marcescens 10100; [11],0.1 µg/mL
same,MIC,Str. pneumoniae J24; [12],0.78 µg/mL
same,MIC,Str. pyrogenes G-36; read-out: MIC,0.2 µg/mL
same,MIC,X. maltophilia IID 1275; [13],0.39 µg/mL

# From patent US6762181B1, “Aminomethylpyrrolidine derivatives having aromatic substituents” (Daiichi Pharmaceutical Co., Ltd., priority 1999, dated 2004)
